Reference: patent US20090068290A1, “BIFEPRUNOX DOSES FOR TREATING SCHIZOPHRENIA” (priority 2006, published 2009)

How the values were obtained:
Format in all cases: in vivo, human
[1] = tested on: adult subjects with schizophrenia; assay: CGI responder rate, Clinical Study Three; details: LOCF
Source text: CLINICAL STUDY THREE: A CGI responder is defined as a subject who is categorized as “very much improved” or “much improved” on the CGI Improvement scale. […] No notable differences were observed between the placebo group and either of the two bifeprunox dose groups.

[2] = tested on: adult subjects with schizophrenia; assay: Adverse events (TEAE, SAE, discontinuation, EPS-related TEAE, anticholinergic use), Clinical Study One
Experimental: METHODOLOGY: This was a randomized, double-blind, fixed-dose, placebo-controlled, risperidone-referenced, parallel group, multi-center study in adult subjects with schizophrenia. There were five treatment groups in this study. […] Study medication was administered once daily. After Baseline measurements were performed, the titration phase was begun. Bifeprunox treated subjects were titrated up to 5 mg, 10 mg or 20 mg according to a standardized titration schedule (Day 1: 0.125 mg, Day 2: 0.25 mg, Day 3: 0.5 mg, Day 4: 1.0 mg, Day 5: 2.0 mg, Day 6: 5.0 mg, Day 7: 10.0 mg, Day 8: 20 mg).

[3] = tested on: adult subjects with schizophrenia; assay: PANSS positive subscale score, Clinical Study One; details: Risperidone 6 mg, ITT
Experimental: (§1) There were five treatment groups in this study. […] Study medication was administered once daily. After Baseline measurements were performed, the titration phase was begun. Bifeprunox treated subjects were titrated up to 5 mg, 10 mg or 20 mg according to a standardized titration schedule (Day 1: 0.125 mg, Day 2: 0.25 mg, Day 3: 0.5 mg, Day 4: 1.0 mg, Day 5: 2.0 mg, Day 6: 5.0 mg, Day 7: 10.0 mg, Day 8: 20 mg). When the assigned dose was reached, subjects were maintained at that dose for the remainder of the six-week treatment period.
(§2) The change in the Positive and Negative Symptom Scale (PANSS) total score, from baseline to endpoint, was the primary outcome measure. Secondary efficacy measures included: PANSS positive, PANSS negative, PANSS general psychopathology (GPP) score, PANSS-derived Brief Psychiatric Rating Scale (BPRS) score, Clinical Global Impressions-Severity of Illness (CGI-S), CGI-Improvement (CGI-I) scores, and responder rates. Safety and tolerability evaluations included extrapyramidal symptoms (EPS), weight gain, lipid profile, and serum prolactin.

[4] = tested on: adult subjects with schizophrenia; assay: CGI Severity of Illness score, Clinical Study One; details: Risperidone 6 mg, ITT population
Experimental: as §1, §2

Structure (SMILES): Cc1cc2c(s1)Nc1ccccc1N=C2N1CCN(C)CC1 [Olanzapine, olanzapine, reference compound]
- CGI Responder No, % ([1]; 15 mg, Week 6/Endpoint): 54%
- CGI Responder Yes, % ([1]; 15 mg, Week 6/Endpoint): 46%
- CGI-I responder rate (subjects much or very much improved) at Endpoint ([1]; olanzapine 15 mg): 46%

Structure (SMILES): Cc1nc2n(c(=O)c1CCN1CCC(c3noc4cc(F)ccc34)CC1)CCCC2 [Risperidone, risperidone, reference compound]
- TEAE Akathisia, % ([2]; 6 mg, Safety Population): (5%)
- TEAE Muscle Spasms, % ([2]; 6 mg, Safety Population): (2%)
- TEAE Musculoskeletal Stiffness, % ([2]; 6 mg, Safety Population): (<1%)
- TEAE Myalgia, % ([2]; 6 mg, Safety Population): (2%)
- TEAE NERVOUS SYSTEM DISORDERS, % ([2]; 6 mg, Safety Population): (49%)
- TEAE Neck Pain, % ([2]; 6 mg, Safety Population): (2%)
- TEAE Neck Stiffness, % ([2]; 6 mg, Safety Population): (<1%)
- TEAE Pain in Jaw, % ([2]; 6 mg, Safety Population): (<1%)
- TEAE Pain in Limb, % ([2]; 6 mg, Safety Population): (2%)
- Affect Lability, % ([2]; Risperidone 6 mg): (<1%)
- Agitation, % ([2]; Risperidone 6 mg): (8%)
- Alcoholic Hangover, % ([2]; Risperidone 6 mg): (<1%)
- Anxiety Aggravated, % ([2]; Risperidone 6 mg): (3%)
- Anxiety, % ([2]; Risperidone 6 mg): (6%)
- DIZZINESS, % ([2]; Risperidone 6 mg): (5%)
- DYSARTHRIA, % ([2]; Risperidone 6 mg): (2%)
- Disturbance in Attention, % ([2]; Risperidone 6 mg): (<1%)
- Drooling, % ([2]; Risperidone 6 mg): (2%)
- Dystonia, % ([2]; Risperidone 6 mg): (4%)
- EXTRAPYRAMIDAL DISORDER, % ([2]; Risperidone 6 mg): (3%)
- Gait Feastinating, % ([2]; Risperidone 6 mg): (<1%)
- Headache Nos, % ([2]; Risperidone 6 mg): (28%)
- Hypoaesthesia, % ([2]; Risperidone 6 mg): (<1%)
- Migraine Aggravated, % ([2]; Risperidone 6 mg): (<1%)
- Oculogyric Crisis, % ([2]; Risperidone 6 mg): (<1%)
- PARAESTHESIA, % ([2]; Risperidone 6 mg): (<1%)
- PSYCHIATRIC DISORDERS, % ([2]; Risperidone 6 mg): (39%)
- SEDATION, % ([2]; Risperidone 6 mg): (13%)
- SOMNOLENCE, % ([2]; Risperidone 6 mg): (22%)
- TREMOR, % ([2]; Risperidone 6 mg): (<1%)
- incidence of aggravated schizophrenia NOS (SAE) ([2]; Risperidone 6 mg): 4%
- subjects with at least one AE that led to discontinuation ([2]; Risperidone 6 mg): 14%
- subjects with at least one SAE ([2]; Risperidone 6 mg): 16%
- subjects with at least one TEAE ([2]; Risperidone 6 mg): 89%
- suicide attempt ([2]; Risperidone 6 mg): no subjects
- Change from Baseline in PANSS Positive Subscale Score, Mean (S.D.) ([3]; Endpoint LOCF): −5.3 (4.8)
- Change from Baseline in PANSS Positive Subscale Score, Median ([3]; Endpoint LOCF): −5
- Change from Baseline in PANSS Positive Subscale Score, Mean (S.D.) ([3]; Week 1, LOCF): −2.7 (3.4)
- Change from Baseline in PANSS Positive Subscale Score, Median ([3]; Week 1, LOCF): −2
- Change from Baseline in PANSS Positive Subscale Score, Mean (S.D.) ([3]; Week 2, LOCF): −4.3 (4.2)
- Change from Baseline in PANSS Positive Subscale Score, Median ([3]; Week 2, LOCF): −4
- Change from Baseline in PANSS Positive Subscale Score, Mean (S.D.) ([3]; Week 3, LOCF): −5.0 (4.6)
- Change from Baseline in PANSS Positive Subscale Score, Median ([3]; Week 3, LOCF): −5
- Change from Baseline in PANSS Positive Subscale Score, Mean (S.D.) ([3]; Week 4, LOCF): −4.9 (4.6)
- Change from Baseline in PANSS Positive Subscale Score, Median ([3]; Week 4, LOCF): −4
- Change from Baseline in CGI Severity of Illness Score, Mean (S.D.) ([4]; Endpoint LOCF): −0.76 (0.93)
- Change from Baseline in CGI Severity of Illness Score, Median ([4]; Endpoint LOCF): 0.0
- Change from Baseline in CGI Severity of Illness Score, Mean (S.D.) ([4]; Week 1, LOCF): −0.37 (0.68)
- Change from Baseline in CGI Severity of Illness Score, Median ([4]; Week 1, LOCF): 0.0
- Change from Baseline in CGI Severity of Illness Score, Mean (S.D.) ([4]; Week 2, LOCF): −0.60 (0.83)
- Change from Baseline in CGI Severity of Illness Score, Median ([4]; Week 2, LOCF): 0.0
- Change from Baseline in CGI Severity of Illness Score, Mean (S.D.) ([4]; Week 3, LOCF): −0.70 (0.81)
- Change from Baseline in CGI Severity of Illness Score, Median ([4]; Week 3, LOCF): 0.0
- Change from Baseline in CGI Severity of Illness Score, Mean (S.D.) ([4]; Week 4, LOCF): −0.69 (0.85)
- Change from Baseline in CGI Severity of Illness Score, Median ([4]; Week 4, LOCF): 0.0
